Reference: ChEMBL document CHEMBL1201862, “PubChem BioAssay data set” (2004)
Blank lines part the entries; values can stand above or below the compound they belong to. Active and inactive are the calls of the source.

Columns and labels:
[1] = molecular target: T1, Kappa-type opioid receptor (Homo sapiens, UniProt P41145); test: SAR analysis of small molecule agonists of the kappa opioid receptor via a luminescent beta-arrestin assay - Set 3. [Related pubchem assays (depositor defined):AID1777, AID1785, AID1786, AID1966, AID2133, AID2136, AID2284, AID2500]; type: functional
T1 sequence (P41145 whole entry): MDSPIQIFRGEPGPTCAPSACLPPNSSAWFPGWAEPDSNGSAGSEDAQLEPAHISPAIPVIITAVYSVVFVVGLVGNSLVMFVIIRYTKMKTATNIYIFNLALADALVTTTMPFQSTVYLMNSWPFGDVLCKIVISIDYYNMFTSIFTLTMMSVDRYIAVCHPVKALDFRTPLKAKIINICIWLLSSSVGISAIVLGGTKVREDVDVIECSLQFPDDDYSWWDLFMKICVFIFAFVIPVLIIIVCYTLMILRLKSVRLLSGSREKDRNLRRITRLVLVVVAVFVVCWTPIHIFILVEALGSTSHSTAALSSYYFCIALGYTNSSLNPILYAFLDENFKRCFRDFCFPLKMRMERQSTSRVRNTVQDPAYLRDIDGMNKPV

Mu-type opioid receptor = Mu-type opioid receptor (Homo sapiens, UniProt P35372); test: SAR Analysis of Antagonists of the MOR Receptor using an Image-Based Assay - Set 3. [Related pubchem assays (depositor defined):AID1777, AID1785, AID1786, AID1966, AID2133, AID2136, AID2284, AID2285, AID2420]; type: functional
Sequence of Mu-type opioid receptor (P35372 whole entry): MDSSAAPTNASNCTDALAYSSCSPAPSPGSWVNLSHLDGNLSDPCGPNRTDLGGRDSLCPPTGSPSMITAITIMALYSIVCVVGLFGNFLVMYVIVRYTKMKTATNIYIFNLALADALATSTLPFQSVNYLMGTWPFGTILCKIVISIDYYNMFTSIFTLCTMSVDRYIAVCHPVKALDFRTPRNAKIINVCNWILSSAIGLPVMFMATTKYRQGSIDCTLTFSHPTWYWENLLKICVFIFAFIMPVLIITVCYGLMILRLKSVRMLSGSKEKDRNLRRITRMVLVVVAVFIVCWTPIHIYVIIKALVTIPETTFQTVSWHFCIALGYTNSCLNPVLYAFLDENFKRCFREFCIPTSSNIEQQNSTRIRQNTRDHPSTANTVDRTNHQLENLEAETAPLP

[2] = molecular target: Delta-type opioid receptor (Homo sapiens, UniProt P41143); test: SAR Analysis of Antagonists of the DOR Receptor using an Image-Based Assay - Set 3. [Related pubchem assays (depositor defined):AID1777, AID1785]; type: functional;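 note: U2OS cells expressing DOR1 and beta-arrestin GFP stimulated with 100 nM SNC80; imaging of GFP-tagged beta-arrestin moving into spots after receptor activation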
Sequence of Delta-type opioid receptor (P41143 whole entry): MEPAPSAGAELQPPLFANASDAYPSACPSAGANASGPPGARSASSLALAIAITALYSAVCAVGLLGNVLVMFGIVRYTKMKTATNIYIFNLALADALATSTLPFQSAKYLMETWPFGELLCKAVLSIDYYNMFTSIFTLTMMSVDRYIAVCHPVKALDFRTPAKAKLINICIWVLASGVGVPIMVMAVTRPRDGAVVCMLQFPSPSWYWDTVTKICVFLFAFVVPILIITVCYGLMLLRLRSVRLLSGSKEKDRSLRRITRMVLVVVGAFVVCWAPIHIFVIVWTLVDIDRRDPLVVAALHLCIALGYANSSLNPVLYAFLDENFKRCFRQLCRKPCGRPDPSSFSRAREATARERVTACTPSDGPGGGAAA

[3] = molecular target: T1, Kappa-type opioid receptor; test: SAR analysis of small molecule antagonists of the kappa opioid receptor via a luminescent beta-arrestin assay - Set 3. [Related pubchem assays (depositor defined):AID1777, AID1778, AID1785, AID1786, AID1966, AID2133, AID2136, AID2285, AID2495]; type: functional
[4] = molecular target: T1, Kappa-type opioid receptor; test: SAR analysis of Antagonists of the Kappa Opioid Receptor (KOR) using an Image-Based Assay - Set 3. [Related pubchem assays (depositor defined):AID1777, AID1785]; type: functional
[5] = molecular target: Sphingosine 1-phosphate receptor 4 (Homo sapiens, UniProt O95977); test: Late-stage fluorescence dose response cell-based assay to identify agonists of the Sphingosine 1-Phosphate Receptor 4 (S1P4): purchased compounds EC50. [Related pubchem assays (depositor defined):AID1509, AID1523, AID1563, AID1686, AID1701, AID1801]; type: functional
Sequence of Sphingosine 1-phosphate receptor 4 (O95977 whole entry): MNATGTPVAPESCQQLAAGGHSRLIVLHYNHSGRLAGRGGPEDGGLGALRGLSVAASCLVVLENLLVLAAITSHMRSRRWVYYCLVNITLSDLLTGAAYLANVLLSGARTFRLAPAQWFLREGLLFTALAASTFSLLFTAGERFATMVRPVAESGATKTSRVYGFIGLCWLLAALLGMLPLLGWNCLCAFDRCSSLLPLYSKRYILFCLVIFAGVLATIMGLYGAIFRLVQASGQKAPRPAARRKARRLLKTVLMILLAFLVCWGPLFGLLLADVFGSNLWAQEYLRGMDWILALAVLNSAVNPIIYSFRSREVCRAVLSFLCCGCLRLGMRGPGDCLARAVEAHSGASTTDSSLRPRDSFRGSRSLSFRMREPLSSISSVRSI

[6] = molecular target: T2, E3 ubiquitin-protein ligase XIAP (Homo sapiens, UniProt P98170); test: Counter Screen using XIAP-Bir3 for Chemical Antagonists of Bir1/2 domains of IAP-family anti-apoptotic proteins. [Related pubchem assays (depositor defined):AID1018, AID1449, AID1514, AID1638, AID1749, AID1750, AID488957, AID488963]
T2 sequence (P98170 whole entry): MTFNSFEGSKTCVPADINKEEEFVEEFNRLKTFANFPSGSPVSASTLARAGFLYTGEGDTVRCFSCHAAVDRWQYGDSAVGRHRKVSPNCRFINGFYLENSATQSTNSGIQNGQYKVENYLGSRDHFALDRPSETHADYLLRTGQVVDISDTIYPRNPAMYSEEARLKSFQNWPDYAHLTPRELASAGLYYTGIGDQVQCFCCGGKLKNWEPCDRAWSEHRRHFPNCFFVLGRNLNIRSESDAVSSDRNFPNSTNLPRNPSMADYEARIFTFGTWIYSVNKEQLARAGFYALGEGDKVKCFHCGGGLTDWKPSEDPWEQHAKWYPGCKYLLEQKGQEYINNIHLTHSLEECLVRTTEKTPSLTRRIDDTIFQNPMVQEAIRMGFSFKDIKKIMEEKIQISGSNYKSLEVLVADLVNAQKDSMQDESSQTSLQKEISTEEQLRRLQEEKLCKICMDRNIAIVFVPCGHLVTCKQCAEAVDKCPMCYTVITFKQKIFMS

[7] = molecular target: T2, E3 ubiquitin-protein ligase XIAP; test: XIAP antagonists, biochemical, IAP family, fluorescence polarization (AID 1018); type: functional
[8] = molecular target: Metabotropic glutamate receptor 2 (Rattus norvegicus, UniProt P31421); test: rat mGluR2 glutamate potency shift by compounds, selectivity assay for mGluR4 modulator project, cell-based (AID 2188); type: functional
Sequence of Metabotropic glutamate receptor 2 (P31421 whole entry): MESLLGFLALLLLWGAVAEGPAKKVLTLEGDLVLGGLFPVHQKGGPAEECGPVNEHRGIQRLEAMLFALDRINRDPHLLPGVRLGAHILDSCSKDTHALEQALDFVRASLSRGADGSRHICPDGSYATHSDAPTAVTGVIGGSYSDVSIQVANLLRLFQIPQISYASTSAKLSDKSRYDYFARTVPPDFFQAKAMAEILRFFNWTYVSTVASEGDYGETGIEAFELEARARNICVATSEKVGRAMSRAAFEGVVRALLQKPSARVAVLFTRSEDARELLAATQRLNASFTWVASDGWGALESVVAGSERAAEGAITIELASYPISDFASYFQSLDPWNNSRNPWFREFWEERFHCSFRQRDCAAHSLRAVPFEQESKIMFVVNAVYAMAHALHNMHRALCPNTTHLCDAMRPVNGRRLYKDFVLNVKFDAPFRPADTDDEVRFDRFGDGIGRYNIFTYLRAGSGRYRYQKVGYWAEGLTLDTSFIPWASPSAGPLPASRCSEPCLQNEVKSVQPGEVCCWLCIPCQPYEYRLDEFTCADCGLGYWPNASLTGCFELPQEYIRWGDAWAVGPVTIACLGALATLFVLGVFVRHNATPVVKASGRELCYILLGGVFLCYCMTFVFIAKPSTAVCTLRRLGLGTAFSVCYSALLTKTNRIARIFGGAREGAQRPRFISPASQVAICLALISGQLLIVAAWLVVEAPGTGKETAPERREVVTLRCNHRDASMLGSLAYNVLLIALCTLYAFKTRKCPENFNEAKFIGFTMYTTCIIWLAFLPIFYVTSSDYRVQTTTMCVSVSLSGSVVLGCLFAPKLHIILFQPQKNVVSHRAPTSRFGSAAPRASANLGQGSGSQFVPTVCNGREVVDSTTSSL

[9] = molecular target: Metabotropic glutamate receptor 7 (Rattus norvegicus, UniProt P35400); test: Modulation of the Metabotropic Glutamate Receptor mGluR4: Selectivity at mGluR7. [Related pubchem assays (depositor defined):AID2437, AID2807]; type: functional
Sequence of Metabotropic glutamate receptor 7 (P35400 whole entry): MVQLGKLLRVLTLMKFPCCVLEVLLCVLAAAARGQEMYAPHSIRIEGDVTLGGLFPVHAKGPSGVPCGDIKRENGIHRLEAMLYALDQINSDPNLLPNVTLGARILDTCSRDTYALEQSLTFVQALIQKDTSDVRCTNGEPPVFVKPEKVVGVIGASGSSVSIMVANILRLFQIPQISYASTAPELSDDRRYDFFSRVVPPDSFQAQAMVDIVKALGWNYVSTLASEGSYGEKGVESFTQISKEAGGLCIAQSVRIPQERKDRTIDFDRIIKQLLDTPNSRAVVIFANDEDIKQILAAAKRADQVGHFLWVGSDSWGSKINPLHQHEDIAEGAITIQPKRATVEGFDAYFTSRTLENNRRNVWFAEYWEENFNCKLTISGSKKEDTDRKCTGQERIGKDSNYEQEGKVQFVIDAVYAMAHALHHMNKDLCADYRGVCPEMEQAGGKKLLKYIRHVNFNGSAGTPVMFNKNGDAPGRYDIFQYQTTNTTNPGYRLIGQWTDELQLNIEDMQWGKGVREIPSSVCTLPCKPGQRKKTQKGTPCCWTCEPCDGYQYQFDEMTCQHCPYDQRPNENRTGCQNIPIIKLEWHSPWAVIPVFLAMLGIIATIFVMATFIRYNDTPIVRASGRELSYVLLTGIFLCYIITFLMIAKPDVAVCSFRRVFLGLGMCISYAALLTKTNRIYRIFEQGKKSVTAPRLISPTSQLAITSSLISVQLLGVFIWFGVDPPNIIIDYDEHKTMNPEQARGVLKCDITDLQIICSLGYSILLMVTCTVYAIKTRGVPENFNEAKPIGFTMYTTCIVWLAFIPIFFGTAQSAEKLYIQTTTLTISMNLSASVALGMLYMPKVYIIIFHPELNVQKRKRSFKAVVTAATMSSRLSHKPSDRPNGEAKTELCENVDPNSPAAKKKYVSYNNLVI

[10] = molecular target: Metabotropic glutamate receptor 1 (Rattus norvegicus, UniProt P23385); test: Modulation of the Metabotropic Glutamate Receptor mGluR4: Selectivity at mGluR1. [Related pubchem assays (depositor defined):AID2437, AID2807]; type: functional
Sequence of Metabotropic glutamate receptor 1 (P23385 whole entry): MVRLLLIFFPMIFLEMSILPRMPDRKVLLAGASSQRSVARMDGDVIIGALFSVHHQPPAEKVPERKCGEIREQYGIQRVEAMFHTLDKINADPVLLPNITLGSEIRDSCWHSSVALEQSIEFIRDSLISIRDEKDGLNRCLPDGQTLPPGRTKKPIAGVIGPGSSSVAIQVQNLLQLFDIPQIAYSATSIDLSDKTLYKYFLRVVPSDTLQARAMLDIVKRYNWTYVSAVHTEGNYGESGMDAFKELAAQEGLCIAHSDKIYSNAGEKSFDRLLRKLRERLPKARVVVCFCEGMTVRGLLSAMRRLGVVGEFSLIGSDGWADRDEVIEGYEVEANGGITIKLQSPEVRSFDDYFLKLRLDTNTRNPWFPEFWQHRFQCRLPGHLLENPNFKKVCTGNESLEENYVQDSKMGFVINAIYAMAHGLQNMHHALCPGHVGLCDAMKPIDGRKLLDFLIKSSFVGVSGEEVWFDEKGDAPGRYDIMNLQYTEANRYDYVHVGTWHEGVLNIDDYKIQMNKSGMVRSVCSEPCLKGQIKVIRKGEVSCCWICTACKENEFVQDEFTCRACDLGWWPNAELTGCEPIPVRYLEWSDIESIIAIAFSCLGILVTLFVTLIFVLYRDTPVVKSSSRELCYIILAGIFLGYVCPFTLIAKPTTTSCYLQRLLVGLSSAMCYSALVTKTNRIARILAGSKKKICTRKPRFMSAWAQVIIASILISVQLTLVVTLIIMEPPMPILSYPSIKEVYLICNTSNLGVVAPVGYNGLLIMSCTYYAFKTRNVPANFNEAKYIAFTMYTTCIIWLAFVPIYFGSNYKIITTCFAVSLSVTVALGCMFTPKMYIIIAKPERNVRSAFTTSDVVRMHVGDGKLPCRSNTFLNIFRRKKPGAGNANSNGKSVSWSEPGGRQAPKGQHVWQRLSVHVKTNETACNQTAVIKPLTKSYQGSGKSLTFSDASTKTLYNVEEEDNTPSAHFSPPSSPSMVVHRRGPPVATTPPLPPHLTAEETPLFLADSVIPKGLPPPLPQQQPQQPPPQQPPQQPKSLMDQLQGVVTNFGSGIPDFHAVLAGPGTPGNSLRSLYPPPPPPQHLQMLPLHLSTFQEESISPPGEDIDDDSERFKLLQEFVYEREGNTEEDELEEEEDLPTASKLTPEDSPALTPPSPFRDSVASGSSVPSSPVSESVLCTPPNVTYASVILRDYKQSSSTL

Compound: COc1ccc(CNC(=O)C(C)OC(=O)c2c(C)nn(Cc3ccccc3)c2Cl)cc1 (stereo unspecified)
EC50 [5]: > 50 µM (inactive)

Compound: COc1ccc(/C=N/Nc2nc(N3CCCC3)nc(N3CCCC3)n2)cc1
IC50 [6]: > 100 µM (inactive)
IC50 [7]: > 100 µM (not active)

Compound: COc1cc(NC(=O)c2ccccn2)ccc1Cl
EC50 [8]: 1.04 µM (inactive)
Activity EC50 [9]: 313 µM
EC50 [10]: 0.943 µM (inactive)

Other lines, results leading:

EC50 [1]: 8 µM (active)
Compound: Clc1ccc(CSc2nnc(-c3ccc(Br)cc3)n2Cc2ccco2)cc1Cl

IC50 (Mu-type opioid receptor): > 32 µM (inactive)
IC50 [2]: > 32 µM (inactive)
IC50 [3]: > 20 µM (inactive)
IC50 [4]: 2.03 µM (active)
Compound: CC(C)N(CCNC(=O)c1ccc(CNS(=O)(=O)c2ccc(Br)cc2)cc1)Cc1ccc(Br)cc1
